Like-named read-outs stand apart in the source and are kept apart here. One block for each molecule: values may come before it.
Experiments:
[1] = system: advanced glycation endproduct generation (bovine serum albumin with fructose and glucose); experiment: In vitro inhibitory effect on advanced glycation endproduct generation (BSA + fructose/glucose, fluorescence); type: biochemical
Description: Inhibitory effect of Osteomeles schwerinae small twig/leaf extract, fractions thereof obtained from each of hexane layer, ethyl acetate layer, butanol layer and water layer of the extract, and Osteomeles schwerinae seed extract on advanced glycation endproduct generation was investigated in vitro. Bovine serum albumin (BSA, Sigma, USA) was used as a protein source. BSA was added to 50 mM phosphate buffer (pH 7.4) at the concentration of 10 mg/ml. As a sugar source, the mixed solution of 0.2 M fructose and 0.2 M glucose was used. The mixed solution of fructose and glucose was added to the BSA solution. Osteomeles schwerinae small twig/leaf extract was prepared at different concentrations of 5 μg/ml, 10 μg/ml and 25 μg/ml. Hexane layer was also prepared at the concentrations of 10 μg/ml, 25 μg/ml and 50 μg/ml. Ethyl acetate layer was prepared at different concentrations of 5 μg/ml, 10 μg/ml and 25 μg/ml. Butanol layer and water layer were respectively prepared at the concentrations of 2.5 μg/ml, 5 μg/ml and 10 μg/ml. Osteomeles schwerinae seed extract was also prepared at different concentrations of 5 μg/ml, 10 μg/ml and 25 μg/ml. (All of those compounds were dissolved in DMSO, to which 15% tween 80 was added. At this time, the content of DMSO was 0.2%). Each extract or fraction was mixed with the mixed solution of BSA and sugars, followed by culture at 37° C. for 14 or 28 days. At this time, 0.02% sodium azide and antimycotics were added thereto as the antibacterial and antifungal agent. For the control, the mixed solution of BSA and sugars was cultured. The blank groups of each experimental and the control were composed as the above but not cultured. For the positive control, which would be used as an index for the comparison of the effect, aminoguanidine was used. To avoid error, 4 of each culture solution were prepared. 14 or 28 days later, the content of advanced glycation endproducts generated in each culture solution was measured and compared. AGEs therein were fluorescent and brown colored. They have physiochemical properties for the cross-linking and also have ligand that can be recognized by cell membrane receptor. The amount of AGEs having the said properties was measured with microplate reader (Excitation: 350 nm, Emission: 450 nm) to analyze the inhibitory effect on the generation of AGEs (Vinson, J. A. et al., J. Nutr. Biochem., 7: 659-663, 1996).
Inhibitory rate of generation was calculated by the following formula. Inhibitory rate of generation(%)=100−(fluorescence intensity of experimental group sample−fluorescence intensity of empty sample)/(fluorescence intensity of control group sample−fluorescence intensity of control group empty sample)×100
Aminoguanidine was dissolved in distilled water and then cultured at the concentrations of 37 μg/ml, 55.5 μg/ml and 74 μg/ml at 37° C. for 14 days and also cultured at the concentrations of 18.5 μg/ml, 37.0 μg/ml and 92.5 μg/ml for 28 days by the same manner as described above. The amount of advanced glycation endproducts generated in each culture solution was measured with microplate reader (Excitation: 350 nm, Emission: 450 nm). Inhibitory effect of Osteomeles schwerinae small twig/leaf extract, its fractions and Osteomeles schwerinae seed extract on advanced glycation endproduct generation was measured in vitro by the same manner as described above and the results are shown in Table 2.

aldose reductase = target: T1, aldose reductase (Rattus norvegicus, UniProt P07943); experiment: In vitro inhibitory effect on aldose reductase activity; type: biochemical, SD rat; details: for inhibition of aldose reductase activity: compounds isolated from Osteomeles schwerinae extract
T1 construct: To obtain natural aldose reductase from eyeballs of SD rat; from tissue; host or cells: lens of Sprague-Dawley rat (homogenate supernatant)
Description: To obtain natural aldose reductase from eyeballs of SD rat (Sprague-Dawley rat, 250-280 g) by the method of Dufrane (1984), the extracted lens were pulverized together with 135 mM Na, K-phosphate buffer (pH 7.0), and 10 mm 2-mercaptoethanol using homogenizer and sonicater. After performing centrifugation at 14000 rpm for 30 minutes, the supernatant was filtered with 0.2 μm filter at 4° C. Quantification was performed by Lowry method using BSA as a protein source of enzyme. The mixture of 135 mM Na, K-phosphate buffer (pH 7.0), 100 mM lithium sulfate, 0.03 mM NADPH, 0.04 mM DL-glyceraldehyde and 100 μg/ml enzyme was dissolved in 0.1% DMSO, which was added to 50 μl of each sample diluted at different concentrations. Total volume of the mixture was adjusted to 1 ml, followed by reaction at 37° C. for 10 minutes. […] The reaction was terminated by adding 0.3 ml of 0.5 N HCl, to which 1 in of 6 M NaOH supplemented with 10 mM imidazole wad added, followed by reaction at 60° C. for 10 minutes. Then, conversion rate (NADP fluorescent product) was measured. Each sample was tested in triplicate. Inhibition effect was measured by using spectrofluorophotometric detector (Ex. 360 nm, Em. 460 nm, Bio-TEK, Synergy HT, USA) and the results were presented as IC50.

[2] = system: type I diabetes animal model induced by streptozotocin (STZ); experiment: Type I diabetes animal model induced by streptozotocin; type: in vivo, SD rat
Description: Fully adapted (for 1 week) SD rats (6 weeks, 180-200 g) were used. After adaptation, the rats were fasted for 16 hours. Before the administration of samples, streptozotocin dissolved in 0.1 M citrate buffer (pH 4.5) was treated once by peritoneal injection (60 mg/kg). A week after the peritoneal injection, blood glucose level was measured at fasted or non-fasted state. Rats showing blood glucose level of at least 250 mg/dl at fasted state were selected and distributed fairly with considering the average. 5 groups were prepared as follows: the normal group treated with nothing (presented as Nor), the normal group treated with 200 mg/kg of Osteomeles schwerinae extract (presented as N+OS-141), the group induced with diabetes (presented as DM), the diabetes group treated with 100 mg/kg of Osteomeles schwerinae extract (presented as OS-100), and the positive control group treated with aminoguanidine (presented as AG). Osteomeles schwerinae extract and aminoguanidine were dissolved in water, which were administered orally to the rats every day (5 ml/kg) for 8 weeks. 8 weeks later, the animals were fasted, followed by autopsy. Blood was drawn from saphenons vein. Plasma was separated by centrifuging the whole blood at 3000 rpm at 4° C. The plasma was stored at −70° C. for the later use for data analysis. Each organ was weighed and frozen by using liquid nitrogen, which was stored at 70° C.
Urine was taken for 24 hours on the last week before autopsy to comparatively observe renal function indices and oxidative stress factors. ELISA was performed to measure AGEs and podocyte (synaptopodin). Urine was mixed with coating buffer (50 mM carbonate buffer, pH 9.6) at the ratio of 1:2, which was distributed in 96 well plate (100 μl/well). After incubating the plate at 37° C. for 3 hours, the plate was washed with 0.05% PBST three times, and blocked with 3% skim milk. The plate was stood for one hour and then washed. AGEs (Transgenic, Japan) and synaptopodin (Santa Cruz, USA) antibody were diluted at the ratio of 1:1000 respectively, followed by loading in each well of the plate by 100 μl, which stood at 37° C. for 2 hours. After washing the plate with 0.05% PBST, HRP-conjugated 2nd antibody was loaded in each well of the plate by 100 μl, which stood at 37° C. for 1 hour. 3,3′,5,5′-tetramethylbenzidine (TMB) was added in each well of the plate by 100 μl. Five minutes later, reaction termination solution (1M H2SO4) was added in each well of the plate by 100 μl and then OD was measured with ELISA reader. Albuminuria and creatinine (Cr) used as renal function indices were measured.
Kidney was extracted during autopsy, which was fixed in 10% neutralized formalin, followed by dehydration. The kidney was substituted with xylene three times, followed by embedding with paraffin. The embedded tissue block was cut into 4 μm sections, which were placed on microscope slide. PAS staining was performed to observe morphological changes. The stained slide was observed under optical microscope. […] To investigate fibrosis by collagen infiltrated in kidney cortex, Masson's trichrome staining was performed. Multiple numbers of collagen stained as blue by Masson's trichrome were observed around glomerular, basement membrane and in interstitial area between renal tubules in the diabetes group, but the difference was not significant from that of the normal group. […] Histological changes were traced 8 weeks after inducing diabetes. […]

[3] = 24 h urine, last week, vs diabetes group
[4] = STZ diabetic rats, 100 mg/kg oral daily, 8 weeks

- inhibition at 3.72 µg/mL (aldose reductase; 3.72 μg/ml (20 μm)): 39.3 ± 4.17%
- inhibition at 4.66 µg/mL (aldose reductase; 4.66 μg/ml (25 μm)): 55.7 ± 3.25%
- inhibition at 5.59 µg/mL (aldose reductase; 5.59 μg/ml (30 μm)): 60.3 ± 1.39%
- IC50 (aldose reductase; read-out: inhibitory effect (IC50) on aldose reductase): 24.1 µM
- IC50 (aldose reductase; read-out: inhibitory effect (IC50, μg/ml) on aldose reductase (converted)): 24.2 µM
Compound: O=C(O)CC1(CC(=O)O)CCCC1 [3,3-tetramethyleneglutaric acid]

- inhibitory effect (IC50, μg/ml) ([1]; 14 day): 71.13 µg/mL
- Inhibitory effect (%) ([1]; 14 day, 37 μg/ml): 27.42 ± 1.51%
- Inhibitory effect (%) ([1]; 14 day, 55.5 μg/ml): 39.96 ± 0.90%
- Inhibitory effect (%) ([1]; 14 day, 74 μg/ml): 51.77 ± 1.91%
- inhibitory effect (IC50, μg/ml) ([1]; 28 day): 91.30 µg/mL
- Inhibitory effect (%) ([1]; 28 day, 18.5 μg/ml): 14.89 ± 4.11%
- Inhibitory effect (%) ([1]; 28 day, 37.0 μg/ml): 24.93 ± 3.46%
- Inhibitory effect (%) ([1]; 28 day, 92.5 μg/ml): 50.41 ± 0.41%
Compound: N=C(N)NN [Aminoguanidine]
- expressions of AGEs and RAGE in kidney ([2]; 100 mg/kg): significantly reduced
- podocyte loss in glomerulus, synaptopodin and WT1 staining ([2]; 100 mg/kg, vs diabetes group): podocyte loss was reduced
- fibrosis by collagen in kidney cortex, Masson's trichrome staining ([2]; 8 weeks): such change was not peculiar
- glomerular basement membrane thickening, PAS staining ([2]; 8 weeks, vs untreated diabetes group): any change in glomerular basement membrane thickening was not observed
- Albuminuria [2, 3]: decreased significantly
- Urine alb/Cr [2, 3]: decreased
- Body weight (g) Initial ([2]; STZ diabetic rats, 100 mg/kg): 244.3 ± 4.02 g
- ALT (U/L) [2, 4]: 158.9 ± 26.25 U/L
- AST (U/L) [2, 4]: 341.6 ± 70.90 U/L
- Body weight (g) Final [2, 4]: 210.3 ± 9.98 g
- 8-OHdG in kidney ([2]; vs diabetes group): reduced in the group treated with AG, but the decrease was not that significant

Continued, molecule first:

Compound: CC(=O)OC1C(c2c(O)cc(O)c3c(=O)cc(-c4ccc(O)cc4)oc23)OC(CO)C(O)C1O (centres unmarked) [2-O-acetylvitexin]
- inhibition of advanced glycation endproduct generation ([1]; compounds isolated from Osteomeles schwerinae extract): confirmed to inhibit
- inhibition of aldose reductase activity (aldose reductase): confirmed to inhibit

Compound: Oc1cc(O)c2c(c1)O[C@H](c1ccc(O)c(O)c1)[C@H](O)C2 [(−)-epicatechin]
- inhibition of advanced glycation endproduct generation [1]: confirmed to inhibit
- inhibition of aldose reductase activity (aldose reductase): confirmed to inhibit

Compound: C=C(C)C1CCC2(CO)CCC3(C)C(CCC4C5(C)CCC(OC(=O)C=Cc6ccc(O)c(O)c6)C(C)(C)C5CCC43C)C12 (stereo not drawn) [betuline-3β-yl-caffeate]
- inhibition of advanced glycation endproduct generation [1]: confirmed to inhibit
- inhibition of aldose reductase activity (aldose reductase): confirmed to inhibit

Compound: C=C(C)C1CCC2(C(=O)O)CCC3(C)C(CCC4C5(C)CCC(OC(=O)C=Cc6ccc(O)c(O)c6)C(C)(C)C5CCC43C)C12 (stereo not drawn) [betulinic acid-3β-yl-caffeate]
- inhibition of advanced glycation endproduct generation [1]: confirmed to inhibit
- inhibition of aldose reductase activity (aldose reductase): confirmed to inhibit

From patent US8784911B2, “Compositions for treatment and prevention of diabetic complications using Osteomeles schwerinae” (Korea Institute of Oriental Medicine, priority 2009, dated 2014)
